Columns and labels:
[1] = Inhibition of Adenylate Cyclase in Rat adipocytes; type: cell-based
Adenosine A2 receptor = Adenosine A2 receptor (Rattus norvegicus, UniProt P29276+P30543)
Adenosine receptor A1 = target: T1, Adenosine receptor A1 (Rattus norvegicus, UniProt P25099)
T1 sequence (P25099 whole entry): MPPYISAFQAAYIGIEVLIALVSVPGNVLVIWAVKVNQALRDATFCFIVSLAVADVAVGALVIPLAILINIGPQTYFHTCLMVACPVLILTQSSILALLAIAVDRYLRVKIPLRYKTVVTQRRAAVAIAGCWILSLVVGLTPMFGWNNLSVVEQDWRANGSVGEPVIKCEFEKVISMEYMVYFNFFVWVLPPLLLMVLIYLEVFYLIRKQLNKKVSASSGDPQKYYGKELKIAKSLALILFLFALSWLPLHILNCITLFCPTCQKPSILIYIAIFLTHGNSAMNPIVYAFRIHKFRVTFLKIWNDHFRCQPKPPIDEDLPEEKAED

| Structure (SMILES) | IC50 [1] | Ki (Adenosine A2 receptor) | Ki (Adenosine receptor A1) |
| --- | --- | --- | --- |
| OC[C@H]1O[C@@H](n2cnc3c(Nc4ccccc4)ncnc32)[C@H](O)[C@@H]1O [N6-PHENYLADENOSINE] | 190 nM | 110 nM |  |
| CCCn1c(=O)c2nc([C@@H](C)Cc3ccccc3)[nH]c2n(CCC)c1=O |  | 848 nM |  |
| CCCn1c(=O)c2nc(C(C)Cc3ccccc3)[nH]c2n(CCC)c1=O (stereo not given) |  | 644 nM |  |
| CCCn1c(=O)c2nc([C@H](C)Cc3ccccc3)[nH]c2n(CCC)c1=O |  | 157 nM |  |
| Cn1c(=O)c2nc[nH]c2n(C)c1=O [THEOPHYLLINE] | 940 nM |  |  |
| Cn1c(=O)c2nc(C3CCCCC3)[nH]c2n(C)c1=O | 2.5 nM | 4.7 nM |  |

The remaining lines, values ahead:

| IC50 [1] | Ki (Adenosine A2 receptor) | Ki (Adenosine receptor A1) | Structure (SMILES) |
| --- | --- | --- | --- |
| 2200 nM | 350 nM |  | OC[C@H]1O[C@@H](n2cnc3c(NCc4ccccc4)ncnc32)[C@H](O)[C@@H]1O [N6-BENZYLADENOSINE] |
| 42 nM |  |  | Cn1c(=O)c2nc(C3CC3)[nH]c2n(C)c1=O |
| 37 nM | 20.9 nM |  | Cn1c(=O)c2nc(-c3ccccc3)[nH]c2n(C)c1=O [8-PHENYL THEOPHYLLINE] |
| 27 nM |  |  | OC[C@H]1O[C@@H](n2cnc3c(NC4CCCCC4)ncnc32)[C@H](O)[C@@H]1O |
|  |  | 2.1 nM | OC[C@H]1O[C@@H](n2cnc3c(NC4CC4)ncnc32)[C@H](O)[C@@H]1O |
| 0.47 nM |  | 0.46 nM | Cn1c(=O)c2nc(C3CCCC3)[nH]c2n(C)c1=O [8-CYCLOPENTYLTHEOPHYLLINE] |
| 19.2 nM | 1.1 nM |  | OC[C@H]1O[C@@H](n2cnc3c(NC4CCCC4)ncnc32)[C@H](O)[C@@H]1O [N6-CYCLOPENTYLADENOSINE] |
| 890 nM |  |  | Cn1c(=O)c2nc(Cc3ccccc3)[nH]c2n(C)c1=O |

Reference: ChEMBL document CHEMBL1125020 (J Med Chem, 1990)
